Test results as given in patent US11197904B2, “Pharmaceutical compositions for preventions and managements of dementia, infectious diseases, cancers, periodontitis, dental caries, diabetes, obesity, osteoporosis and chronic pain and methods thereof” (Chung Shan Medical University, priority 2018, dated 2021).
In brackets after ≈: the same amount, converted by molar mass. Read-outs that look alike come from different tables or passages of the source.

Key:
[1] = system: Streptococcus mutans (S.m., UA159); test: microbe, parasite or virus in culture; details: read-out: IC50, 50% inhibition on bacterial proliferation, UA159
[2] = system: Staphylococcus aureus (S.a); test: microbe, parasite or virus in culture; details: read-out: IC50, 50% inhibition on bacterial proliferation, S. a.
[3] = system: Pseudomonas aeruginosa (P.a.); test: microbe, parasite or virus in culture; details: read-out: IC50, 50% inhibition on bacterial proliferation, P. a.
[4] = system: Porphyromonas gingivalis (P.g.); test: microbe, parasite or virus in culture; details: read-out: IC50, 50% inhibition on bacterial proliferation, P. g.
[5] = system: Pseudomonas aeruginosa (P.a.); details: for IC50: read-out: IC50, P. a., metals alone
[6] = system: Staphylococcus aureus (S.a); details: for IC50: read-out: IC50, S. a., metals alone
[7] = system: Porphyromonas gingivalis (P.g.)
[8] = system: Streptococcus mutans (S.m., UA159)
[9] = system: Lactobacillus reuteri (L.r.); test: Proliferation of the probiotic Lactobacillus reuteri (OD600); format: cell-based
[10] = 3 to 10 times higher IC50, Table 2
[11] = read-out: IC50, P. g., metals alone
[12] = read-out: IC50, UA159, metals alone

Compound: O[C@H](CS)[C@H](O)CS (racemic) [Dithiothreitol]
- IC50 [1]: > 300 mg/L
- IC50 [2]: > 300 mg/L
- IC50 [3]: > 300 mg/L
- IC50 [4]: > 300 mg/L

Compound: CCCCCCc1ccc(O)cc1O [4-Hexyl-Resorcinol]
- IC50 [1]: 15 mg/L (≈ 77.2 µM)
- IC50 [2]: 32 mg/L (≈ 165 µM)
- IC50 [3]: > 100 mg/L
- IC50 [4]: 20 mg/L (≈ 103 µM)

Compound: N=C(N)NCCC[C@H](N)C(=O)N[C@@H](Cc1ccccc1)C(=O)O [ArgPhe]
- IC50, 50% inhibition on bacterial proliferation, P. a. ([5]; P.a., 16 h): >100 mg/L
- IC50, 50% inhibition on bacterial proliferation, S. a. ([6]; S.a, 16 h): >100 mg/L
- IC50, 50% inhibition on bacterial proliferation, P. g. [7]: >100 mg/L
- IC50, 50% inhibition on bacterial proliferation, UA159 ([8]; S.m., UA159): >100 mg/L

Compound: COc1ccc2cc3[n+](cc2c1OC)CCc1cc2c(cc1-3)OCO2 [Berberine]
- IC50 [1]: 25 mg/L
- IC50 [2]: > 100 mg/L
- IC50 [3]: > 100 mg/L
- IC50 [4]: > 100 mg/L

Compound: CN(C)CCCN1c2ccccc2Sc2ccc(Cl)cc21 [Chlorpromazine]
- IC50 [1]: 7 mg/L (≈ 22 µM)
- IC50 [2]: 12 mg/L (≈ 37.6 µM)
- Inhibition on proliferation of Lactobacillus reuteri [9, 10]: CPZ, Chlorpromazine*
- IC50 [3]: 149 mg/L (≈ 467 µM)
- IC50 [4]: 5 mg/L (≈ 15.7 µM)

Compound: [Cl][Cu][Cl] [CuCl2]
- IC50 [5]: 1690 µM
- IC50 [6]: > 2000 µM
- IC50 [7, 11]: 673 µM
- IC50 [8, 12]: 448 µM

Compound: COc1cc(/C=C/C(=O)CC(=O)/C=C/c2ccc(O)c(OC)c2)ccc1O [Curcumin]
- IC50 [1]: 42 mg/L (≈ 114 µM)
- IC50 [2]: < 1000 mg/L
- Inhibition on proliferation of Lactobacillus reuteri ([9]; 3 to 10 times higher than the listed IC50, Table 1): C*, Curcumin
- IC50 [3]: 302 mg/L (≈ 820 µM)
- IC50 [4]: 126 mg/L (≈ 342 µM)

Compound: Cc1cc(N)c2ccccc2[n+]1CCCCCCCCCC[n+]1c(C)cc(N)c2ccccc21 [Dequalinium]
- IC50 [1]: 1 mg/L
- IC50 [2]: 2 mg/L
- IC50 [3]: > 10 mg/L
- IC50 [4]: 3 mg/L

Compound: C[C@@H]1CC[C@@]2(OC1)O[C@H]1[C@@H](O)[C@H]3[C@@H]4CC[C@H]5C[C@@H](O[C@@H]6O[C@H](CO)[C@H](O[C@@H]7O[C@H](CO)[C@@H](O)[C@H](O[C@@H]8OC[C@@H](O)[C@H](O)[C@H]8O)[C@H]7O[C@@H]7O[C@H](CO)[C@H](O)[C@H](O[C@@H]8O[C@H](CO)[C@@H](O)[C@H](O)[C@H]8O)[C@H]7O)[C@H](O)[C@H]6O)[C@H](O)C[C@]5(C)[C@H]4CC[C@]3(C)[C@H]1[C@@H]2C [Digitonin]
- IC50 [1]: > 300 mg/L
- IC50 [2]: > 300 mg/L
- IC50 [3]: > 300 mg/L
- IC50 [4]: 123 mg/L (≈ 100 µM)

Compound: COc1ccc([C@@H]2Sc3ccccc3N(CCN(C)C)C(=O)[C@@H]2OC(C)=O)cc1 [Diltiagem]
- IC50, 50% inhibition on bacterial proliferation, P. a. ([5]; single agent): >300 mg/L
- IC50, 50% inhibition on bacterial proliferation, S. a. ([6]; single agent): >300 mg/L
- IC50, 50% inhibition on bacterial proliferation, P. g. ([7]; single agent): 104 mg/L (≈ 251 µM)
- IC50, 50% inhibition on bacterial proliferation, UA159 ([8]; single agent): >300 mg/L

Compound: O=C(O[C@@H]1Cc2c(O)cc(O)cc2O[C@@H]1c1cc(O)c(O)c(O)c1)c1cc(O)c(O)c(O)c1 [EGCG]
- IC50, 50% inhibition on bacterial proliferation, P. a. ([5]; single agent): 173 mg/L (≈ 377 µM)
- IC50, 50% inhibition on bacterial proliferation, S. a. ([6]; single agent): 142 mg/L (≈ 310 µM)
- IC50, 50% inhibition on bacterial proliferation, P. g. ([7]; single agent): 83 mg/L (≈ 181 µM)
- IC50, 50% inhibition on bacterial proliferation, UA159 ([8]; single agent): 137 mg/L (≈ 299 µM)

Compound: CC(O)(P(=O)(O)O)P(=O)(O)O [Etidronate]
- IC50 [1]: 597 mg/L (≈ 2900 µM)
- IC50 [2]: 350 mg/L (≈ 1700 µM)
- IC50 [3]: > 1000 mg/L
- IC50 [4]: 46 mg/L (≈ 223 µM)

Compound: NNC(=O)c1ccncc1 [Isoniazid]
- IC50 [1]: > 300 mg/L
- IC50 [2]: > 300 mg/L
- IC50 [3]: > 300 mg/L
- IC50 [4]: > 300 mg/L

Compound: CC12CC3CC(C)(C1)CC(N)(C3)C2 [Memantine]
- IC50 [1]: 386 mg/L (≈ 2150 µM)
- IC50 [2]: 435 mg/L (≈ 2430 µM)
- IC50 [3]: 321 mg/L (≈ 1790 µM)
- IC50 [4]: 59 mg/L (≈ 329 µM)

Compound: CN(C)C(=N)N=C(N)N [Metformin]
- IC50 [1]: > 1000 mg/L
- IC50 [2]: > 1000 mg/L
- Inhibition on proliferation of Lactobacillus reuteri [9, 10]: MF, Metformin*
- IC50 [3]: > 1000 mg/L
- IC50 [4]: 639 mg/L (≈ 4950 µM)

Compound: [Na+].[Na+].[Na+].[O]=[V]([O-])([O-])[O-] [Na3VO4]
- IC50 [5]: > 2000 µM
- IC50 [6]: > 2000 µM
- IC50 [7, 11]: 217 µM
- IC50 [8, 12]: 866 µM

Compound: CC(Cc1ccc(O)c(O)c1)C(C)Cc1ccc(O)c(O)c1 (stereo not drawn) [Nordihydro-guaiaretic acid]
- IC50 [1]: 50 mg/L (≈ 165 µM)
- IC50 [2]: 66 mg/L (≈ 218 µM)
- IC50 [3]: > 300 mg/L
- IC50 [4]: < 30 mg/L

Compound: C[C@@H]1[C@H](O)[C@@H](C)/C=C/C=C/CC/C=C/C=C/C=C/C=C/C(O[C@H]2O[C@H](C)[C@@H](O)[C@H](N)[C@@H]2O)CC2O[C@](O)(CC(O)C(O)CCC(O)CC(O)CC(O)CC(=O)O[C@H]1C)CC(O)C2C(=O)O (stereo partly drawn) [Nystatin]
- IC50, 50% inhibition on bacterial proliferation, P. a. ([5]; single agent): >300 mg/L
- IC50, 50% inhibition on bacterial proliferation, S. a. ([6]; single agent): >300 mg/L
- IC50, 50% inhibition on bacterial proliferation, P. g. ([7]; single agent): 228 mg/L (≈ 246 µM)
- IC50, 50% inhibition on bacterial proliferation, UA159 ([8]; single agent): >300 mg/L

Compound: N.N.[Cl][Pt][Cl] [Pt]
- IC50 ([7]; read-out: IC50 of single drug, Table 14, P. g., drug alone): 69 µM
- IC50 ([8]; read-out: IC50 of single drug, Table 14, UA159, drug alone): > 100 µM

Compound: O=c1c(O)c(-c2ccc(O)c(O)c2)oc2cc(O)cc(O)c12 [Quercetin]
- IC50 [1]: 46 mg/L (≈ 152 µM)
- IC50 [2]: > 100 mg/L
- IC50 [3]: > 100 mg/L
- IC50 [4]: > 100 mg/L

Compound: C=C[C@H]1C[N@@]2CC[C@H]1C[C@H]2[C@H](O)c1ccnc2ccc(OC)cc12 [Quinine]
- IC50 [1]: > 100 mg/L
- IC50 [2]: > 100 mg/L
- IC50 [3]: > 100 mg/L
- IC50 [4]: 43 mg/L (≈ 133 µM)

Compound: CO[C@H]1/C=C/O[C@@]2(C)Oc3c(C)c(O)c4c(O)c(c(/C=N/N5CCN(C)CC5)c(O)c4c3C2=O)NC(=O)/C(C)=C\C=C\[C@H](C)[C@H](O)[C@@H](C)[C@@H](O)[C@@H](C)[C@H](OC(C)=O)[C@@H]1C [Rifampin]
- IC50 [1]: 0.013 mg/L (≈ 0.0158 µM)
- IC50 [2]: 0.013 mg/L (≈ 0.0158 µM)
- IC50 [3]: 26 mg/L (≈ 31.6 µM)
- IC50 [4]: 0.45 mg/L (≈ 0.547 µM)

Compound: [H]/N=C(/N)N[C@H]1[C@H](O)[C@@H](O)[C@H](O[C@@H]2O[C@@H](C)[C@](O)(C=O)[C@H]2O[C@@H]2O[C@@H](CO)[C@H](O)[C@@H](O)[C@@H]2NC)[C@@H](N/C(N)=N\[H])[C@@H]1O [Streptomycin]
- IC50 [1]: 21 mg/L (≈ 36.1 µM)
- IC50 [2]: 0.2 mg/L (≈ 0.344 µM)
- IC50 [3]: 5 mg/L (≈ 8.6 µM)
- IC50 [4]: 9 mg/L (≈ 15.5 µM)

Compound: Cc1nc(C)c(C)nc1C [Tetramethyl-pyrazine]
- IC50 [1]: > 300 mg/L
- IC50 [2]: > 300 mg/L
- IC50 [3]: > 300 mg/L
- IC50 [4]: 37 mg/L (≈ 272 µM)

Compound: CSc1ccc2c(c1)N(CCC1CCCCN1C)c1ccccc1S2 (stereo not drawn) [Thioridazine]
- Inhibition on proliferation of Lactobacillus reuteri [9, 10]: TRZ, Thioridazine*

Compound: NC[C@H]1O[C@H](O[C@H]2[C@H](O)[C@@H](O[C@H]3O[C@H](CO)[C@@H](O)[C@H](N)[C@H]3O)[C@H](N)C[C@@H]2N)[C@H](N)C[C@@H]1O [Tobramycin]
- IC50 [1]: < 3 mg/L
- IC50 [2]: < 3 mg/L
- IC50 [3]: 9 mg/L (≈ 19.3 µM)
- IC50 [4]: 4 mg/L (≈ 8.56 µM)

Compound: COc1ccc(CCN(C)CCCC(C#N)(c2ccc(OC)c(OC)c2)C(C)C)cc1OC (stereo not drawn) [Verapamil]
- IC50 [1]: > 300 mg/L
- IC50 [2]: > 300 mg/L
- IC50 [3]: > 300 mg/L
- IC50 [4]: 137 mg/L (≈ 301 µM)

Compound: Cardiotoxin
- IC50, 50% inhibition on bacterial proliferation, P. a. ([5]; single agent): >10 mg/L
- IC50, 50% inhibition on bacterial proliferation, S. a. ([6]; single agent): >10 mg/L
- IC50, 50% inhibition on bacterial proliferation, P. g. ([7]; single agent): 11 mg/L
- IC50, 50% inhibition on bacterial proliferation, UA159 ([8]; single agent): >10 mg/L

Compound: Lysozyme
- IC50, 50% inhibition on bacterial proliferation, P. a. ([5]; single agent): >100 mg/L
- IC50, 50% inhibition on bacterial proliferation, S. a. ([6]; single agent): >100 mg/L
- IC50, 50% inhibition on bacterial proliferation, P. g. ([7]; single agent): 21 mg/L
- IC50, 50% inhibition on bacterial proliferation, UA159 ([8]; single agent): >100 mg/L

Compound: Phospholipase A2
- IC50, 50% inhibition on bacterial proliferation, P. a. ([5]; single agent): >10 mg/L
- IC50, 50% inhibition on bacterial proliferation, S. a. ([6]; single agent): >10 mg/L
- IC50, 50% inhibition on bacterial proliferation, P. g. ([7]; single agent): >10 mg/L
- IC50, 50% inhibition on bacterial proliferation, UA159 ([8]; single agent): >10 mg/L

Compound: polyarginine
- IC50, 50% inhibition on bacterial proliferation, P. a. ([5]; single agent): >100 mg/L
- IC50, 50% inhibition on bacterial proliferation, S. a. ([6]; single agent): >100 mg/L
- IC50, 50% inhibition on bacterial proliferation, P. g. ([7]; single agent): 25 mg/L
- IC50, 50% inhibition on bacterial proliferation, UA159 ([8]; single agent): >100 mg/L

Compound: protamine
- IC50, 50% inhibition on bacterial proliferation, P. a. ([5]; single agent): >100 mg/L
- IC50, 50% inhibition on bacterial proliferation, S. a. ([6]; single agent): >100 mg/L
- IC50, 50% inhibition on bacterial proliferation, P. g. ([7]; single agent): 31 mg/L
- IC50, 50% inhibition on bacterial proliferation, UA159 ([8]; single agent): >100 mg/L
